Measurements: patent US20120232073A1, “FUSED BICYCLIC PYRIMIDINE DERIVATIVES AND METHODS OF USE THEREOF” (priority 2009, published 2012)

Each compound was assayed against T1, human GPR119 (Homo sapiens, UniProt Q8TDV5) (assay: cAMP assay (LANCE cAMP kit), activation of GPR119). Settings: HEK293 cells expressing human GPR119; increase in cAMP levels.
T1 construct: expressed in transfected cells; host or cells: HEK293
T1 sequence (Q8TDV5 1-335): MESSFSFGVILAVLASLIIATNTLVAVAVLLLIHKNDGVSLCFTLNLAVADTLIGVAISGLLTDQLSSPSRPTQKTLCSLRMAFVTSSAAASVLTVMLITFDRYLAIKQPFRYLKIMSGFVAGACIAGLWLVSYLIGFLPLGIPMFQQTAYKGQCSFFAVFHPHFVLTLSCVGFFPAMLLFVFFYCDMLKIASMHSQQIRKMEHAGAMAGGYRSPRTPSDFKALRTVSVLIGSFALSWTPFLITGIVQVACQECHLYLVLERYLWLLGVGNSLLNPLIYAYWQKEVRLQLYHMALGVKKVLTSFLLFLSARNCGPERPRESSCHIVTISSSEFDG
Format: cell-based
Experimental: The ability of illustrative compounds of the invention to activate GPR119 and stimulate increases in cAMP levels was determined using the LANCE™ cAMP kit (Perkin Elmer). HEK293 cells expressing human GPR119 were maintained in culture flasks at 37° C./5% CO2 in DMEM containing 10% fetal bovine serum, 100 U/ml Pen/Strep, and 0.5 mg/ml geneticin. The media was changed to Optimem and cells were incubated overnight at 37° C./5% CO2. The Optimem was then aspirated and the cells were removed from the flasks using room temperature Hank's balanced saline solution (HBSS). The cells were pelleted using centrifugation (1300 rpm, 7 minutes, room temperature), then resuspended in stimulation buffer (HBSS, 0.1% BSA, 5 mM HEPES, 15 μM RO-20) at 2.5×10^6 cells/mL. Alexa Fluor 647-anti cAMP antibody (1:100) was then added to the cell suspension and incubated for 30 minutes. A representative Fused Bicyclic Pyrimidine Derivative (6 μl at 2× concentration) in stimulation buffer containing 2% DMSO were then added to white 384 well Matrix plates. Cell suspension mix (6 μl) was added to each well and incubated with the Fused Bicyclic Pyrimidine Derivative for 30 minutes. A cAMP standard curve was also created in each assay according to the kit protocol. Standard concentrations of cAMP in stimulation buffer (6 μl) were added to white 384 well plates. Subsequently, 6 μl of 1:100 anti-cAMP antibody was added to each well. Following the 30 minute incubation period, 12 μl of detection mix (included in kit) was added to all wells and incubated for 2-3 hours at room temperature. Fluorescence was detected on the plates using an Envision instrument. The level of cAMP in each well is determined by extrapolation from the cAMP standard curve.

| Compound | EC50 [nM] |
| --- | --- |
| CC(C)(C)OC(=O)N1CC2COCC(C1)C2Oc1ncnc2c1CCN2c1ccc(F)cc1F (stereo not drawn) [Compound 10] | 100 to 500 |
| Fc1cnc(N2CC3COCC(C2)C3Oc2ncnc3c2ccn3-c2ccc(F)cc2F)nc1 (stereo not drawn) [Compound 12] | 50 to 100 |
| Fc1ccc(N2CCc3c(OC4C5COCC4CN(c4ncc(Cl)cn4)C5)ncnc32)c(F)c1 (stereo not drawn) [Compound 13] | 100 to 500 |
| Cc1c(F)ccc(-n2ccc3c(OC4C5COCC4CN(C(=O)OC(C)(C)C)C5)ncnc32)c1F (stereo not drawn) [Compound 17] | 50 to 100 |
| Cc1c(F)ccc(-n2ccc3c(OC4C5COCC4CN(C(=O)OC(C)(C)C)C5)ncnc32)c1C#N (stereo not drawn) [Compound 20] | 100 to 500 |
| Cc1c(F)ccc(-n2ccc3c(OC4C5COCC4CN(C(=O)OC(C)(C)C)C5)ncnc32)c1C#N (stereo not drawn) [Compound 21] | 50 to 100 |
| Cc1c(F)ccc(-n2ccc3c(OC4C5COCC4CN(C(=O)OC4(C)CC4)C5)ncnc32)c1C#N (stereo not drawn) [Compound 22] | 50 to 100 |
| Cc1cccc(-n2ccc3c(OC4C5COCC4CN(C(=O)OC(C)(C)C)C5)ncnc32)c1C#N (stereo not drawn) [Compound 23] | 50 to 100 |
| Cc1cccc(-n2ccc3c(OC4C5COCC4CN(C(=O)OC4(C)CC4)C5)ncnc32)c1C#N (stereo not drawn) [Compound 24] | 50 to 100 |
| CC(C)(C)OC(=O)N1CC2COCC(C1)C2Oc1ncnc2c1ccn2-c1ccc(S(C)(=O)=O)cc1F (stereo not drawn) [Compound 25] | 100 to 500 |
| CC(C)(C)OC(=O)N1CC2COCC(C1)C2Oc1ncnc2c1ccn2-c1ccc(S(C)(=O)=O)cc1F (stereo not drawn) [Compound 26] | 100 to 500 |
| CC1(OC(=O)N2CC3COCC(C2)C3Oc2ncnc3c2ccn3-c2ccc(S(C)(=O)=O)cc2F)CC1 (stereo not drawn) [Compound 28] | 100 to 500 |
| CC(C)c1noc(N2CC3COCC(C2)C3Oc2ncnc3c2ccn3-c2ccc(F)cc2F)n1 (stereo not drawn) [Compound 29] | 100 to 500 |
| CS(=O)(=O)c1ccc(-n2ccc3c(OC4C5COCC4CN(c4ncc(F)cn4)C5)ncnc32)c(F)c1 (stereo not drawn) [Compound 30] | 50 to 100 |
| CCCc1cnc(N2CC3COCC(C2)C3Oc2ncnc3c2ccn3-c2ccc(S(C)(=O)=O)cc2F)nc1 (stereo not drawn) [Compound 31] | 50 to 100 |
| CC(C)(C)OC(=O)N1CC2COCC(C1)C2Oc1ncnc2c1ccn2-c1c(F)cc(F)cc1F (stereo not drawn) [Compound 33] | < 50 |
| CS(=O)(=O)c1ccc(-n2cnc3c(OC4C5COCC4CN(c4ncc(Cl)cn4)C5)ncnc32)c(F)c1 (stereo not drawn) [Compound 34] | 500 to 1000 |
| CC1(OC(=O)N2CC3COCC(C2)C3Oc2ncnc3c2ncn3-c2ccc(C#N)cc2F)CC1 (stereo not drawn) [Compound 35] | 50 to 100 |
| CC1(OC(=O)N2CC3COCC(C2)C3Oc2ncnc3c2cnn3-c2ccc(C#N)cc2F)CC1 (stereo not drawn) [Compound 36] | < 50 |

| Compound | EC50 [nM] |
| --- | --- |
| CC1(OC(=O)N2CC3COCC(C2)C3Oc2ncnc3c2cnn3-c2ccc(C#N)cc2F)CC1 (stereo not drawn) [Compound 37] | < 50 |
| CC1OC(C)C2CN(C(=O)OC3(C)CC3)CC1C2Oc1ncnc2c1cnn2-c1ccc(C#N)cc1F (stereo not drawn) [Compound 38] | < 50 |
| CC1OC(C)C2CN(C(=O)OC3(C)CC3)CC1C2Oc1ncnc2c1cnn2-c1ccc(C#N)cc1F (stereo not drawn) [Compound 39] | 100 to 500 |
| CC1(OC(=O)N2CC3COCC(C2)C3Oc2ncnc3c2cnn3-c2ccc(C#N)cc2Cl)CC1 (stereo not drawn) [Compound 40] | < 50 |
| CC1(OC(=O)N2CC3COCC(C2)C3Oc2ncnc3c2[nH]c(=O)n3-c2ccc(C#N)cc2F)CC1 (stereo not drawn) [Compound 41] | 500 to 1000 |
| Cc1nc2c(OC3C4COCC3CN(C(=O)OC3(C)CC3)C4)ncnc2n1-c1ccc(C#N)cc1F (stereo not drawn) [Compound 42] | 500 to 1000 |
| CC1(OC(=O)N2CC3COCC(C2)C3Oc2ncnc3c2ncn3-c2ccc(C#N)cc2Cl)CC1 (stereo not drawn) [Compound 43] | 100 to 500 |
| CC(C)OC(=O)N1CC2COCC(C1)C2Oc1ncnc2c1ncn2-c1ccc(C#N)cc1Cl (stereo not drawn) [Compound 44] | 100 to 500 |
| CC1(OC(=O)N2CC3COCC(C2)C3Oc2ncnc3c2cnn3-c2ccc(F)cc2F)CC1 (stereo not drawn) [Compound 45] | 100 to 500 |
| CC1(OC(=O)N2CC3COCC(C2)C3Oc2ncnc3c2cnn3-c2ccc(F)cc2F)CC1 (stereo not drawn) [Compound 46] | 100 to 500 |
| CC1(OC(=O)N2CC3COCC(C2)C3Oc2ncnc3c2ncn3-c2ccc(Br)cc2F)CC1 (stereo not drawn) [Compound 47] | 100 to 500 |
| Cn1cc(-c2ccc(-n3ncc4c(OC5C6COCC5CN(C(=O)OC5(C)CC5)C6)ncnc43)c(F)c2)cn1 (stereo not drawn) [Compound 48] | 100 to 500 |
| CC1(OC(=O)N2CC3COCC(C2)C3Oc2ncnc3c2cnn3-c2ccc(-c3ncco3)cc2F)CC1 (stereo not drawn) [Compound 49] | 100 to 500 |
| CC1(OC(=O)N2CC3COCC(C2)C3Oc2ncnc3c2cnn3-c2ccc(-c3cscn3)cc2F)CC1 (stereo not drawn) [Compound 50] | 100 to 500 |
| CC(C)(C)OC(=O)N1CC2COCC(C1)C2Oc1ncnc2c1nnn2-c1ccc(C#N)cc1Cl (stereo not drawn) [Compound 51] | 100 to 500 |
| CC1(OC(=O)N2CC3COCC(C2)C3Oc2ncnc3c2nnn3-c2ccc(C#N)cc2Cl)CC1 (stereo not drawn) [Compound 52] | 50 to 100 |
| CC(C)(C)OC(=O)N1CC2COCC(C1)C2Oc1ncnc2c1OCCN2c1ccc(C#N)cc1F (stereo not drawn) [Compound 53] | 100 to 500 |
| CC1(OC(=O)N2CC3COCC(C2)C3Oc2ncnc3c2OCCN3c2ccc(C#N)cc2F)CC1 (stereo not drawn) [Compound 54] | 100 to 500 |
| CC(C)OC(=O)N1CC2COCC(C1)C2Oc1ncnc2c1OCCN2c1ccc(C#N)cc1F (stereo not drawn) [Compound 55] | 100 to 500 |

Next, values leading:

| EC50 [nM] | Compound |
| --- | --- |
| < 50 | CC(C)(C)OC(=O)N1CC2COCC(C1)C2Oc1ncnc2c1ccn2-c1ccc(C#N)cc1F (stereo not drawn) [Compound 1] |
| < 50 | CC(C)(C)OC(=O)N1CC2COCC(C1)C2Oc1ncnc2c1ccn2-c1ccc(C#N)cc1F (stereo not drawn) [Compound 2] |
| < 50 | CC(C)OC(=O)N1CC2COCC(C1)C2Oc1ncnc2c1ccn2-c1ccc(C#N)cc1F (stereo not drawn) [Compound 3] |
| < 50 | CCCOC(=O)N1CC2COCC(C1)C2Oc1ncnc2c1ccn2-c1ccc(C#N)cc1F (stereo not drawn) [Compound 4] |
| < 50 | CC1(OC(=O)N2CC3COCC(C2)C3Oc2ncnc3c2ccn3-c2ccc(C#N)cc2F)CC1 (stereo not drawn) [Compound 5] |
| < 50 | CC(C)(C)OC(=O)N1CC2COCC(C1)C2Oc1ncnc2c1ccn2-c1ccc(F)cc1F (stereo not drawn) [Compound 6] |
| < 50 | CC(C)(C)OC(=O)N1CC2COCC(C1)C2Oc1ncnc2c1ccn2-c1ccc(F)cc1F (stereo not drawn) [Compound 7] |
| < 50 | CC1(OC(=O)N2CC3COCC(C2)C3Oc2ncnc3c2ccn3-c2ccc(F)cc2F)CC1 (stereo not drawn) [Compound 8] |
| < 50 | CC(C)(C)OC(=O)N1CC2COCC(C1)C2Oc1ncnc2c1CCN2c1ccc(F)cc1F (stereo not drawn) [Compound 9] |
| < 50 | CC1(OC(=O)N2CC3COCC(C2)C3Oc2ncnc3c2CCN3c2ccc(F)cc2F)CC1 (stereo not drawn) [Compound 11] |
| < 50 | CC(C)(C)OC(=O)N1CC2COCC(C1)C2Oc1ncnc2c1ccn2-c1c(F)cccc1F (stereo not drawn) [Compound 14] |
| < 50 | Cc1c(F)ccc(-n2ccc3c(OC4C5COCC4CN(C(=O)OC(C)(C)C)C5)ncnc32)c1F (stereo not drawn) [Compound 16] |
| < 50 | Cc1c(F)ccc(-n2ccc3c(OC4C5COCC4CN(C(=O)OC4(C)CC4)C5)ncnc32)c1F (stereo not drawn) [Compound 18] |
| < 50 | CC1(OC(=O)N2CC3COCC(C2)C3Oc2ncnc3c2ccn3-c2c(F)cccc2F)CC1 (stereo not drawn) [Compound 19] |
| < 50 | CS(=O)(=O)c1ccc(-n2ccc3c(OC4C5COCC4CN(c4ncc(Cl)cn4)C5)ncnc32)c(F)c1 (stereo not drawn) [Compound 27] |
| < 50 | CC(C)(C)OC(=O)N1CC2COCC(C1)C2Oc1ncnc2c1ccn2-c1c(F)cc(F)cc1F (stereo not drawn) [Compound 32] |
